From US8629132B2, “Kinase inhibitors” (Genosco, priority 2009, dated 2014) come the findings set out here.

Each structure is given as a SMILES string. Counter-ions that a name gives are not always drawn.

For one assay, the target named is JAK2 (Homo sapiens, UniProt O60674). Put plainly: Kinase inhibition assay: JAK2. In kind it is biochemical. More on the design: truncated human FAK, RET, FLT3, JAK2, and LRRK2; purchased Carna Biosciences. The method, then:
(§1) Compounds of the present invention were tested for their capacity to inhibit a kinase panel which includes, but are not limited to, spleen tyrosine kinase (SYK), zeta-chain-associated protein kinase 70 (ZAP70), PTK2B protein tyrosine kinase 2 (PYK2), focal adhesion kinase (FAK), provirus integration of maloney kinase 1 (PIM1), rearranged during transfection kinase (RET), Fms-like tyrosine kinase 3 (FLT3), Janus kinase 2 (JAK2), and leucine-rich repeat kinase 2 (LRRK2).
(§2) Inhibition of SYK, ZAP70, PYK2, FAK, PIM1, RET, FLT3, JAK2 and LRRK2 Kinase Activity
(§3) Compounds of the invention were initially diluted to 10 mM in 100% DMSO (CALBIOCHEM™) for storage and made into kinase buffer solution to create a compound concentration ranging from 1 uM and 10 uM. Serial dilutions of compounds of the invention were dispensed into a 96-well plate (GREINER BIOSCIENCES™) at 6 μL each. Purified full-length human SYK, ZAP70, PIM1, PYK2 and truncated human FAK, RET, FLT3, JAK2, and LRRK2 (CARNA BIOSCIENCES™) were diluted in kinase buffer and added to the compound solutions and pre-incubated for 30 minutes at room temperature (1 hour for PYK2). […] The reaction mixture was incubated for 1 hour (2 hours for PYK2). Following the incubation, the stop solution made with EDTA, water, and Lance detection buffer ([…]™) was added (12μL each) to stop phosphorylation. […] The IC50 value of test compound was calculated at Gradpad Prism 5 unless specified otherwise.

A further assay concerns the target T1, FLT3 (Homo sapiens, UniProt P36888).
T1 construct: truncated human FAK, RET, FLT3, JAK2, and LRRK2; purchased Carna Biosciences
T1 sequence (P36888 564-993 limits assumed): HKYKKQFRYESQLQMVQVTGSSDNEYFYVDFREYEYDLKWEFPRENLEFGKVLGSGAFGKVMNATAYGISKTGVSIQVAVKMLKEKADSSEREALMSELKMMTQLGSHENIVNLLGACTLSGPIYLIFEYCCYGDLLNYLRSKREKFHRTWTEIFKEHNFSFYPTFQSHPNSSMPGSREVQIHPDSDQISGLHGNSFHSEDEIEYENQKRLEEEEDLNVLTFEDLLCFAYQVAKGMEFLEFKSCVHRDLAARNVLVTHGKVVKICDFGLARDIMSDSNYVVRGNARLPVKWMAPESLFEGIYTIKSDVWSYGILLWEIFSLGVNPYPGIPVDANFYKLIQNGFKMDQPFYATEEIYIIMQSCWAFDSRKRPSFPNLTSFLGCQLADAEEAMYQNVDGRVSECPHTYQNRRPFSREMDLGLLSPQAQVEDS
Kind of assay: Kinase inhibition assay: FLT3. Type of assay: biochemical. The method, then:
as §1, §2, §3

The target of another assay is T2, RET (Homo sapiens, UniProt P07949).
T2 construct: truncated human FAK, RET, FLT3, JAK2, and LRRK2; purchased Carna Biosciences
T2 sequence (P07949 658-1114 limits assumed): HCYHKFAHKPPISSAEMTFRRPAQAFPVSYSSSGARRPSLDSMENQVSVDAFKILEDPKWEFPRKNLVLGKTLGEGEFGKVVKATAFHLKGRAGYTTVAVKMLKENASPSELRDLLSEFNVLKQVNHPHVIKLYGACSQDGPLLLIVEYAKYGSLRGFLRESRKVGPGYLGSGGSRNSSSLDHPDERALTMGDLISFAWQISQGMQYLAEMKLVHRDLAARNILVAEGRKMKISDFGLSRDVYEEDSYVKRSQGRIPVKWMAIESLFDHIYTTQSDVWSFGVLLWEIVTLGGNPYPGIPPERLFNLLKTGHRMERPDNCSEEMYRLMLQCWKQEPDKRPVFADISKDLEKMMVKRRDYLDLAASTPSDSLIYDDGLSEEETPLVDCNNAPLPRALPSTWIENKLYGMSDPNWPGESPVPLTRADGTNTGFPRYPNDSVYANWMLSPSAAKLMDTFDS
Put plainly: Kinase inhibition assay: RET. In kind it is biochemical. The protocol:
as §1, §2, §3

The test system of a further assay is MV4-11 cells. Kind of assay: Cell viability assay: FLT3-ITD-positive cells. In kind it is cell-based, human. As to conditions: for IC50: Homo sapiens, MV4-11, 72-hour incubation, read-out: Viability of FLT3-ITD Induced Cancer Cell Line MV-4-11 (IC50 nM). The method, then:
Compounds of the invention were tested for their effects on inhibition of FLT3-ITD in human acute leukemia cell line (MV4-11). FLT3 is primarily expressed in immature hematopoietic progenitor as well as in mature myeloid cells. It belongs to type III receptor tyrosine kinase (RTK) family including KIT, FMS, and PDGFR. It is activated by binding to FL, which leads to increased kinase activity and activation of downstream signaling pathway including STATS, Ras, and PI3Kinase.
Compounds of the invention were tested for cell viability effect on MV4-11 cells. For cell viability assay, MV4-11 cells expressing human FLT3-ITD were obtained from the American Type Culture Collection (ATCC, Manassas, Va.). This cell line was maintained with an Roswell Park Memorial Institute (RPMI) medium (HyClone™) containing 10 bovine calf serum (BCS; Hyclone™) supplemented iron. The MV4-11 cells were seeded at 2×10^4 cells in 96-well culture plates, and serially diluted compound was then added. After a 72-hour incubation period at 37° C., cell viability was measured using the ATPLite 1 step assay (Perkin-Elmer™) that is based on the quantification of ATP from viable cells. CellTiter Aqueous assay (Promega™) was also performed in parallel as an orthogonal assay. IC50 values were calculated using nonlinear regression and defined as the concentration needed for a 50 reduction in luminescence or absorbance treated versus untreated control cells (Prism™ Software).

The target of another assay is T3, LRRK2 (Homo sapiens, UniProt Q5S007).
T3 construct: truncated human FAK, RET, FLT3, JAK2, and LRRK2; purchased Carna Biosciences
T3 sequence (Q5S007 970-2527 limits assumed): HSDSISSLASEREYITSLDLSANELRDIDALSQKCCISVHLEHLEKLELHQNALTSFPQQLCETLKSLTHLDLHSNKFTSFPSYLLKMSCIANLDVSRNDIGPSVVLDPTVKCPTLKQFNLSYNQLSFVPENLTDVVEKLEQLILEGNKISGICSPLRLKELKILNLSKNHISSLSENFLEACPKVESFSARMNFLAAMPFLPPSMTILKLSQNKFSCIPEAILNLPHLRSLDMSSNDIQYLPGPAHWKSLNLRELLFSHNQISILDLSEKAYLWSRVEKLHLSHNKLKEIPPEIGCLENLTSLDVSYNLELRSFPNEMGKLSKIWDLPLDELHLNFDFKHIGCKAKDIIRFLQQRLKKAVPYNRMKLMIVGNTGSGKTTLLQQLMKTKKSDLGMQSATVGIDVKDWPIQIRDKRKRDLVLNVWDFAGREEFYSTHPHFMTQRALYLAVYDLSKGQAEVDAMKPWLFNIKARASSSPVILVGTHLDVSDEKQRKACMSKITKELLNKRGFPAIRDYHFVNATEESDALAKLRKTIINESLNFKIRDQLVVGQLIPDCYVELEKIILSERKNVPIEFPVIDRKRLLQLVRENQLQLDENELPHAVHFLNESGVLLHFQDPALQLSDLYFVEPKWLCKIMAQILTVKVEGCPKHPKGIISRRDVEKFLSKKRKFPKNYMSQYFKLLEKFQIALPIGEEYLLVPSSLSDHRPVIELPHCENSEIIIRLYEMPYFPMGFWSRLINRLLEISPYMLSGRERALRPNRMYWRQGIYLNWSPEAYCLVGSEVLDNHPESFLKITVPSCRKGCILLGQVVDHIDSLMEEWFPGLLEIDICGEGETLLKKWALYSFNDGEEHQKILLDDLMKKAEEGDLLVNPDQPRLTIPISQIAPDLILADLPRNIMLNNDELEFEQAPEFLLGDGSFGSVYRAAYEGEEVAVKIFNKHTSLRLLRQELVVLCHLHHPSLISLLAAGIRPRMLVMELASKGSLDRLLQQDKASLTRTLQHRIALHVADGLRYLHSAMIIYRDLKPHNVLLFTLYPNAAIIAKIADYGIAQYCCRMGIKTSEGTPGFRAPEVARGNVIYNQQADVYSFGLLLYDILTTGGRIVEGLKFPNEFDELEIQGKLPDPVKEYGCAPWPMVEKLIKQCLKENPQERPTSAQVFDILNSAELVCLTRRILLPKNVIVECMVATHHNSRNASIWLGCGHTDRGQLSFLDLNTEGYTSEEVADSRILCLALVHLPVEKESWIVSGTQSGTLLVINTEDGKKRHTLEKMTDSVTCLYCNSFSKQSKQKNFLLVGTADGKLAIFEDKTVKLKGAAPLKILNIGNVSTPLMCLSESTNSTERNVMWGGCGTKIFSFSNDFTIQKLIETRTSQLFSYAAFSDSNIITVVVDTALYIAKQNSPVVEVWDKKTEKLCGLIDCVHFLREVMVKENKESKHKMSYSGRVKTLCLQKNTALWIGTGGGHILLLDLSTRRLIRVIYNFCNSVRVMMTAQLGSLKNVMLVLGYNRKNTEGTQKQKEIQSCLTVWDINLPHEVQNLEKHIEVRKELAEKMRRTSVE
Put plainly: Kinase inhibition assay: LRRK2. Type of assay: biochemical. Conditions: for inhibition at 1 µM: at 1 μM concentration. The protocol: as §1, §2, §3

The target in a further assay is T4, SYK (Homo sapiens, UniProt P43405).
T4 construct: Purified full-length human SYK, ZAP70, PIM1, PYK2; purchased Carna Biosciences
Put plainly: Kinase inhibition assay: SYK. In kind it is biochemical. As to conditions: at 1 μM concentration. The protocol: as §1, §2, §3

Another assay has as its target T5, PYK2 (Homo sapiens, UniProt Q14289).
T5 construct: Purified full-length human SYK, ZAP70, PIM1, PYK2; purchased Carna Biosciences
Put plainly: Kinase inhibition assay: PYK2. As to conditions: at 1 μM concentration. Type of assay: biochemical. The method, then:
as §1, §2, §3

A further assay concerns the target T6, FAK (Homo sapiens, UniProt Q05397).
T6 construct: truncated human FAK, RET, FLT3, JAK2, and LRRK2; purchased Carna Biosciences
Kind of assay: Kinase inhibition assay: FAK. As to conditions: at 1 μM concentration. In kind it is biochemical. The protocol: as §1, §2, §3

The test system of another assay is HEL cells. Kind of assay: Cell viability assay: JAK2 inhibition. As to conditions: for IC50: Homo sapiens, 72-hour incubation, HEL cells expressing JAK2 V617F, read-out: Cell Viability: JAK2 kinase Inhibition HEL (IC50 nM). In kind it is cell-based, human. The protocol:
Compounds of the invention are tested for their effects on JAK2 inhibition in human erythroleukemic cell line (HEL) to illustrate potential efficacy at the cellular level. The Janus-associated kinase (JAK) family, comprised of four different protein tyrosine kinases JAK1, JAK2, JAK3, and TYK2, plays an important role in cellular survival, proliferation, and differentiation. V617F, a unique mutation in the JAK2 gene (a valine-to-phenylalanine substitution) results in constitutive kinase activity and promotes deregulated hematopoiesis. JAK2 V617F is frequently detected in myeloproliferative disorders (MPDs), a group of clonal hematopoietic stem cell disorders that include polycythemia vera (PV), essential thrombocythemia (ET), and idiopathic myelofibrosis (IMF), all of which have the potential to transform to acute myeloid leukemia. JAK2 V617F is constitutively phosphorylated and able to activate downstream signaling in the absence of cytokine stimulation.
Compounds of the present invention were tested for their effects on viability of HEL cells. For cell viability assay, HEL cells expressing human JAK2 V617F were obtained from the American Type Culture Collection (ATCC, Manassas, Va.). This cell line was maintained with Roswell Park Memorial Institute (RPMI) medium (HyClone™) containing 10 bovine calf serum (BCS; Hyclone™) supplemented iron. The HEL cells were seeded at 2×10^4 cells in 96 well culture plates, and serially diluted compound was then added. After a 72-hour incubation period at 37° C., viability of cells was measured using the ATPLite 1 step assay (Perkin-Elmer™) that is based on the quantification of ATP from viable cells. CellTiter Aqueous assay (Promega™) was also performed in parallel as an orthogonal assay. IC50 values were calculated using nonlinear regression and defined as the concentration needed for a 50 reduction in luminescence or absorbance treated versus untreated control cells (Prism™ Software).

Sequence of JAK2 (O60674 826-1132 limits assumed): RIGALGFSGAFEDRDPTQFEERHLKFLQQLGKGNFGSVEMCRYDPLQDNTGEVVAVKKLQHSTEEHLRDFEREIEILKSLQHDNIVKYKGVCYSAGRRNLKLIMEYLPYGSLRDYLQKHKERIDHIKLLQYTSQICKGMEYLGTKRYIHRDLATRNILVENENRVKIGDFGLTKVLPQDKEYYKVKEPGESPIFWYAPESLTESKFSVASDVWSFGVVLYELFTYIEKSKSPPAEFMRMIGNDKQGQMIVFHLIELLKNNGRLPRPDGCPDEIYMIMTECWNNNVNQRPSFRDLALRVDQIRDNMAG
T6 sequence (Q05397 376-1052 limits assumed): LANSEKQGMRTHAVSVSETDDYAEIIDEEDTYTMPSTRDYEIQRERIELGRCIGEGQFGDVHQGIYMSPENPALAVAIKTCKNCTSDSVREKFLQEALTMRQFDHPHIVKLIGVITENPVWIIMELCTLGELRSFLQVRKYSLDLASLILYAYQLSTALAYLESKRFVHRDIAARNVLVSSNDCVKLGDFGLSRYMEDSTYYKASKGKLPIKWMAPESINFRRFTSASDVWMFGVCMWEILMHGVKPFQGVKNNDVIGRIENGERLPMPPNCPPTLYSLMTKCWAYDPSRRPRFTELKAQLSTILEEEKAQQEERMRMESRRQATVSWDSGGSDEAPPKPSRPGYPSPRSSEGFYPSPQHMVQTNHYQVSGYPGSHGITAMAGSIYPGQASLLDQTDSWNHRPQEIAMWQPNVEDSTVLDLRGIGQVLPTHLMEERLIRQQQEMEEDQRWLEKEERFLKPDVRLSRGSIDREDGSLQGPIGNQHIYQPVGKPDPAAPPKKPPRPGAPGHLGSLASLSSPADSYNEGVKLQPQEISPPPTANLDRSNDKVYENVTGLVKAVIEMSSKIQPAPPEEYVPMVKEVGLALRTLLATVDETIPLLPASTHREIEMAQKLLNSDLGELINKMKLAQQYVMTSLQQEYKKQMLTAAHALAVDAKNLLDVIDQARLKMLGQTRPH
T5 sequence (Q14289 whole entry): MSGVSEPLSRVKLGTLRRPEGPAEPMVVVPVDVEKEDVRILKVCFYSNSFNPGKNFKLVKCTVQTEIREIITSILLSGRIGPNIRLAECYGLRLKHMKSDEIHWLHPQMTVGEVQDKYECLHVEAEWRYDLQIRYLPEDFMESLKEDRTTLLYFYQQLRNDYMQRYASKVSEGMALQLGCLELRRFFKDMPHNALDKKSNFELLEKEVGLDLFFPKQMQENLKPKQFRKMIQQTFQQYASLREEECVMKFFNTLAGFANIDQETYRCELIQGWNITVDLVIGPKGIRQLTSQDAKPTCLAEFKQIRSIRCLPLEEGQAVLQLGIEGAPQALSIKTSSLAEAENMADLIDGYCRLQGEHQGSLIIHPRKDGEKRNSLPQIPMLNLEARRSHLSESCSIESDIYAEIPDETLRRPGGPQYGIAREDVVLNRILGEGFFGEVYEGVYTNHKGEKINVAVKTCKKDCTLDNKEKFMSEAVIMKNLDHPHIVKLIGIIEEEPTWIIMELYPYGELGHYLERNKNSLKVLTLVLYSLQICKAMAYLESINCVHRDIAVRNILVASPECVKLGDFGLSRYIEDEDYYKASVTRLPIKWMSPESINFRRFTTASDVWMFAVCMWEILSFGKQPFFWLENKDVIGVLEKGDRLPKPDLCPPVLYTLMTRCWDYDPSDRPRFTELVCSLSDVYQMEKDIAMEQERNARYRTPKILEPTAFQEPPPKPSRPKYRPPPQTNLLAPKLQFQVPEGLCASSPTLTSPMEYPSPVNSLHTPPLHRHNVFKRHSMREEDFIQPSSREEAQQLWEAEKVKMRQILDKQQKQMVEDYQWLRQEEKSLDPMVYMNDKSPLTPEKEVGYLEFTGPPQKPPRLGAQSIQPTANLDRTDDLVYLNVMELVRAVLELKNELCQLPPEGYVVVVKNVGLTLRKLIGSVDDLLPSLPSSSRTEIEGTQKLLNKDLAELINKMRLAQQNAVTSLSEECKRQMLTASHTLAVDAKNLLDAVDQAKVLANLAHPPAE

In general, IC50 refers to the midpoint of a concentration-inhibition curve. For `COc1cc(Nc2ncc(C)c(-n3cc(C)c(CN4CC(O)C4)c3)n2)cc(OC)c1OC` [Compound 91, 1-((4-methyl-1-(5-methyl-2-(3,4,5-trimethoxyphenylamino)pyrimidin-4-yl)-1H-pyrrol-3-yl)methyl)azetidin-3-ol], the IC50 at JAK2 stood at 36.5 nM; at FLT3, 0.4 nM; at RET, 5.2 nM; with MV4-11 cells, 1.5 nM; against LRRK2, 424 nM. Also, in the assay with MV4-11 cells (FLT3 ITD induced cancer cell line (MV4-11)), the “inhibition level compared with Vandetinib and Sunitinib” value is “greater than those exhibited by Vandetinib and Sunitinib”.
The inhibition is the drop in the measured response relative to a control, in per cent. Low readings indicate a response near the control, high ones a response far below the control. As for `Cc1cc(C)cc(Nc2nccc(-n3cc(C)c(CN4CC[C@@H](O)C4)c3)n2)c1` [Compound 41, (R)-1-((1-(2-(3,5-dimethylphenylamino)pyrimidin-4-yl)-4-methyl-1H-pyrrol-3-yl)methyl)pyrrolidin-3-ol], the figures for the inhibition at 1 µM on SYK, at PYK2 and against FAK were 99.3%, 30.7% and 13.9%, respectively.
As to `Cc1cn(-c2nc(Nc3ccc(N4CC[C@H](O)C4)c(C)c3)ncc2C)cc1CO` [Compound 24, (S)-1-(4-(4-(3-(hydroxyl-methyl)-4-methyl-1H-pyrrol-1-yl)-5-methyl-pyrimidin-2-ylamino)-2-methylphenyl)pyrrolidin-3-ol], the IC50 against JAK2 was found to be 1.6 nM; in the assay with HEL cells, 229 nM; on FLT3, 6.8 nM; against RET, 40.4 nM. Moreover, the “inhibition level compared with Sorafenib” value in the assay with HEL cells (HEL) is “greater than those exhibited by Sorafenib”.
With `Cc1cc(C)cc(Nc2nccc(-n3cc(C(=O)N4CC[C@@H](O)C4)c(C)n3)n2)c1` [Compound 32, (R)-(1-(2-(3,5-dimethylphenylamino)pyrimidin-4-yl)-3-methyl-1H-pyrazol-4-yl)(3-hydroxypyrrolidin-1-yl)methanone], the inhibition at 1 µM is 40% against JAK2 (at 1 μM concentration) and 44.3% at LRRK2. Besides, 51.3 nM corresponded to half-maximal inhibition at RET (IC50).
As to `COc1cc(Nc2ncc(C)c(-n3cc(C)c(CN4CCCN(C(=O)C(C)(C)C)CC4)c3)n2)cc(OC)c1OC` [Compound 97, 2,2-dimethyl-1-(4-((4-methyl-1-(5-methyl-2-(3,4,5-trimethoxyphenylamino)pyrimidin-4-yl)-1H-pyrrol-3-yl)methyl)-1,4-diazepan-1-yl)propan-1-one], the IC50 amounted to 65.1 nM against JAK2, 3.6 nM against FLT3, 35.8 nM against RET and 79.2 nM in the assay on MV4-11 cells.
As for `Cc1cc(C)cc(Nc2nccc(-n3cc(C(=O)N(C)CCO)c(C)n3)n2)c1` [Compound 29, 1-(2-(3,5-dimethylphenylamino)pyrimidin-4-yl)-N-(2-hydroxyethyl)-N,3-dimethyl-1H-pyrazole-4-carboxamide], the inhibition at 1 µM is 53% on FLT3 (at 1 μM concentration), 42% against RET (at 1 μM concentration) and 31.4% against LRRK2.
As for `COc1cc(Nc2ncc(C)c(-n3cc(C)c(CN4CCCNCC4)c3)n2)cc(OC)c1OC` [Compound 96, 4-(3-((1,4-diazepan-1-yl)methyl)-4-methyl-1H-pyrrol-1-yl)-5-methyl-N-(3,4,5-trimethoxyphenyl)pyrimidin-2-amine trihydrochloride], the 50% inhibitory concentration (IC50) at JAK2 worked out at 3.9 nM; on FLT3, 0.53 nM; on RET, 10.1 nM; in the assay on MV4-11 cells it was 12.5 nM.
As for `CNC(=O)c1cc(Oc2ccc(NC(=O)Nc3ccc(Cl)c(C(F)(F)F)c3)cc2)ccn1` [Sorafenib, reference compound], in the assay on HEL cells, the IC50 was over 1000 nM.
